Reference: patent US20110009628A1, “Compounds and Compositions for Modulating Lipid Levels and Methods of Preparing Same” (priority 2009, published 2011)

Key:
[1] = system: LDLR mRNA expression in HepG2 cells; experiment: LDLR mRNA expression in HepG2 cells, semi-quantitative RT-PCR; format: cell-based, human; conditions: 8 hours, FIG. 1
Procedure: HepG2 cells obtained from American Tissue Culture Collection (Manassas, Va., USA) were seeded in 6-well culture plates at a density of 0.8×10^6 cells/well cultured in EMEM containing 0.5% FBS and were treated with each purified compound at indicated doses for 8 hours. Total RNA was isolated, and 2 μg per sample was reverse transcribed with random primers using M-MLV (Promega) at 37° C. for 1 hour. PCR was carried out at 94° C. for 30 sec, 60° C. for 30 sec, and 72° C. for 30 sec with initial activation of the enzyme at 94° C. for 1 minute. Thirty cycles were performed for LDLR and GAPDH. PCR was performed using primers HLDLR-up and HLDLR-lo for LDLR and primers HGAPDH-up and HGAPDH-lo for GAPDH. The PCR products were separated on a 1% agarose gel and the band intensity was quantitated. LDLR mRNA levels were corrected by measuring GAPDH mRNA levels.

[2] = system: LDLR ligand uptake activity in HepG2 cells; experiment: DiI-LDL uptake in HepG2 cells (Example 6); format: cell-based, human; conditions: 20 hours; note: key: +: slightly increased fluorescent intensity over control; ++: modestly increased fluorescent intensity over control; +++: strongly increased fluorescent intensity over control
Procedure: HepG2 cells (2×10^5 cells/well) in 24-well culture plates were treated with various compounds at indicated concentrations for 20 hours. The fluorescent 1.1′-dioctadecyl-3,3,3′,3′-tetramethylindocarbocyanin perchlorate (DiI-LDL) (Biomedical Technologies, Stoughton, Mass.) at a concentration of 2 μg/mL was added to cells at the end of treatment. After 4 hours, the medium was removed, cells were washed with cold PBS, and were examined immediately under a fluorescent microscope (Nikon) at 200× amplification. The fluorescent intensity in compound-treated cells was compared to that in untreated control cells. […] In these experiments berberine chloride was used for comparison.

[3] = system: LDLR mRNA expression in HepG2 cells; experiment: LDLR mRNA expression in HepG2 cells, quantitative real-time RT-PCR (Example 7); format: cell-based, human; conditions: dose less than or equal to 10 μM, 24 hours
Procedure: In yet another experiment, HepG2 cells were treated with various compounds for 24 hours at the indicated doses. Total RNA was isolated and 2 μg was used to generate cDNA in a reaction containing random primers and M-MLV at 37° C. for 1 hour in a volume of 25 μL. Real-time PCR was performed on the cDNA using MCEP REALPLEX 2 SYSTEM (Eppendorf) and Universal MasterMix (Applied Biosystems). Human LDLR and GAPDH Pre-Developed TaqMan Assay Reagents (Applied Biosystems) were used to assess the levels of mRNA expressions in HepG2. The levels of LDLR mRNA were normalized to that of GAPDH. Each RNA samples was assayed in triplicate. The abundance of LDLR mRNA in untreated cells was defined as 1, and the amounts of LDLR mRNA from compound-treated cells were plotted relative to that value in FIG. 2B. The data shown are mean±s.d.
Activities of some compounds of Formulas I, II and EE on LDLR mRNA expression were determined. HepG2 cells were treated with new compounds individually at a dose less than or equal to 10 μM for 24 hours. […] In these experiments, berberine chloride was included for comparison.

[4] = system: intracellular triglyceride in HepG2 cells; experiment: Reduction of intracellular triglyceride in HepG2 cells (Example 8); format: cell-based, human
Source text: Berberine chloride was used for comparison. The amount of TG in untreated control cells was defined as 100% and the amounts of TG in compound-treated cells were divided to that value.

[5] = Stability of compound 69 under cell culture conditions, LC-MS of medium; format: in vitro ADME, human; conditions: for Peak Area m/z 466.1: 20 μM in HepG2 culture medium
Procedure: HepG2 cells were cultured in 6-well cell culture plate in EMEM containing 0.5% FBS overnight. Compound 69+ was added to the culture medium to a final concentration of 20 μM. Medium was collected at 0 (control), 4, 8, or 24 hours after the compound addition.
The collected media were analyzed by LC-MS on a Thermo Fisher Scientific Surveyor HPLC system and LCQ ion trap MS with electrospray ionization source. A 50×2. 1 mm Hypersil Gold C18 3 um column was used with a flow rate of 200 uL/min. The method conditions were 98% A (0.1% formic acid in water)/2% B (0.1% formic acid in acetonitrile) then a gradient to 95% B in 10 minutes. The injection volume was 10 uL.

| Compound | Activity on LDLR mRNA expression (Fold of control) [3] | Activity on DiI-LDL uptake ([2]; A, compound dose ≦10 μM) | further results |
| --- | --- | --- | --- |
| COc1cc2c(cc1OC)[C@H]1[C@@H](C)c3ccc(OC)c(OC)c3CN1CC2 [14R,13S-(+)-CRDL] | – | – | effects on LDLR mRNA expression [1]: potent and dose-dependent effects; Activity on DiI-LDL uptake ([2]; B, compound dose ≦40 μM): ++ |
| COc1cc2c(cc1OC)[C@H]1Cc3ccc(OC)c(OC)c3CN1CC2 [14R-(+)-THP, 14R-tetrahydropalmatine, reference compound] | – | – | effects on LDLR mRNA expression [1]: potent and dose-dependent effects; Activity on DiI-LDL uptake ([2]; B, compound dose ≦40 μM): ++ |
| COc1ccc2cc3[n+](cc2c1OC)CCc1cc2c(cc1-3)OCO2 [Berberine, reference compound] | 1.30 ± 0.11 Fold of control | – | Activity on reduction of cellular TG accumulation (% of control) ([4]; B, compound dose ≦40 μM): 70.9 ± 5.4 % of control; Activity on DiI-LDL uptake ([2]; B, compound dose ≦40 μM): + |
| COc1cc2c(cc1OC)C1Cc3cccc(OC)c3CN1CC2 (stereo not shown) [Compound 22, 2,3,9-trimethoxy-5,6,7,8,13,13a-hexahydroisoquinolino[3,2-a]isoquinoline] | – | – | Activity on reduction of cellular TG accumulation (% of control) ([4]; B, compound dose ≦40 μM): 53.35 ± 12.68 % of control |
| COc1ccc2c(c1OCc1ccccc1[N+](=O)[O-])CN1CCc3cc4c(cc3C1C2)OCO4 (stereo not shown) [Compound 26, 10-methoxy-9-[(2-nitrophenyl)methoxy]-5,6,7,8,13,13a-hexahydro-2H-1,3-dioxolano[4,5-g]isoquinolino[3,2-a]isoquinoline] | 1.29 ± 0.10 Fold of control | ++ | – |
| COc1ccc2c(c1OC)C(CC(C)=O)N1CCc3cc4c(cc3C1=C2)OCO4 (stereo not shown) [Compound 30, 1-(9,10-dimethoxy-5,6,7,8-tetrahydro-2H-1,3-dioxolano[4,5-g]isoquinolino[3,2-a]isoquinolin-8-yl)acetone] | 1.47 ± 0.13 Fold of control | + | – |
| COc1ccc2c(c1O)CN1CCc3cc4c(cc3C1C2)OCO4 (stereo not shown) [Compound 34, 10-methoxy-5,6,7,8,13,13a-hexahydro-2H-1,3-dioxolano[4,5-g]isoquinolino[3,2-a]isoquinoline-9-ol] | 1.76 ± 0.17 Fold of control | ++ | – |
| COc1ccc2c(c1OS(=O)(=O)c1ccc(C(C)(C)C)cc1)CN1CCc3cc4c(cc3C1C2)OCO4 (stereo not shown) [Compound 38, 10-methoxy-5,6,7,8,13,13a-hexahydro-2H-1,3-dioxolano[4,5-g]isoquinolino[3,2-a]isoquinolin-9-yl 4-(tert-butyl)benzenesulfonate] | 1.82 ± 0.10 Fold of control | ++ | – |
| COc1ccc2c(c1OC(=O)NC(C)C)CN1CCc3cc4c(cc3C1C2)OCO4 (stereo not shown) [Compound 41, (10-methoxy(5,6,7,8,13,13a-hexahydro-2H-1,3-dioxolano[4,5-g]isoquinolino[3,2-a]isoquinolin-9-yloxy))-N-(methylethyl)carboxamide] | 1.60 ± 0.03 Fold of control | ++ | – |
| COc1ccc2c(c1OC(=O)N(C)C)CN1CCc3cc4c(cc3C1C2)OCO4 (stereo not shown) [Compound 43, (10-methoxy(5,6,7,8,13,13a-hexahydro-2H-1,3-dioxolano[4,5-g]isoquinolino[3,2-a]isoquinolin-9-yloxy))-N,N-dimethylcarboxamide] | 1.95 ± 0.18 Fold of control | ++ | – |
| COc1ccc2c(c1OC(=O)Nc1ccc(OC(F)(F)F)cc1)CN1CCc3cc4c(cc3C1C2)OCO4 (stereo not shown) [Compound 44, (10-methoxy(5,6,7,8,13,13a-hexahydro-2H-1,3-dioxolano[4,5-g]isoquinolino[3,2-a]isoquinolin-9-yloxy))-N-[4-(trifluoromethoxy)phenyl] carboxamide] | 2.20 ± 0.06 Fold of control | ++ | – |
| COc1cc(NC(=O)Oc2c(OC)ccc3c2CN2CCc4cc5c(cc4C2C3)OCO5)cc(OC)c1 (stereo not shown) [Compound 45, N-(3,5-dimethoxyphenyl)(10-methoxy(5,6,7,8,13,13a-hexahydro-2H-1,3-dioxolano[4,5-g]isoquinolino[3,2-a]isoquinolin-9-yloxy))carboxamide] | 2.09 ± 0.11 Fold of control | ++ | – |
| COc1ccc2c(c1OC(=O)Nc1cccc(C)c1)CN1CCc3cc4c(cc3C1C2)OCO4 (stereo not shown) [Compound 46, (10-methoxy(5,6,7,8,13,13a-hexahydro-2H-1,3-dioxolano[4,5-g]isoquinolino[3,2-a]isoquinolin-9-yloxy))-N-(3-methylphenyl)carboxamide] | 1.80 ± 0.16 Fold of control | ++ | – |
| COc1ccc2c(c1OS(=O)(=O)c1ccccc1C)CN1CCc3cc4c(cc3C1C2)OCO4 (stereo not shown) [Compound 50, 10-methoxy-5,6,7,8,13,13a-hexahydro-2H-1,3-dioxolano[4,5-g]isoquinolino[3,2-a]isoquinolin-9-yl 2-methylbenzenesulfonate] | 4.74 ± 0.96 Fold of control | +++ | – |
| COc1ccc2c(c1OS(=O)(=O)c1cccs1)CN1CCc3cc4c(cc3C1C2)OCO4 (stereo not shown) [Compound 56, 10-methoxy-5,6,7,8,13,13a-hexahydro-2H-1,3-dioxolano[4,5-g]isoquinolino[3,2-a]isoquinolin-9-yl thiophene-2-sulfonate] | 3.18 ± 0.63 Fold of control | +++ | – |
| COc1ccc2c(c1OS(=O)(=O)c1ccccc1)CN1CCc3cc4c(cc3C1C2)OCO4 (stereo not shown) [Compound 69, 9-benzenesulfonyloxy-10-methoxy-5,8,13,13a-tetrahydro-6H-[1,3]dioxolo[4,5-g]isoquino[3,2-a]isoquinoline] | 2.21 ± 0.09 Fold of control | +++ | Peak Area m/z 466.1 ([5]; 0 (control) hours): 2.38e8; Peak Area m/z 466.1 ([5]; 4 h): 9.67e7; Peak Area m/z 466.1 ([5]; 8 h): 9.22e7; Peak Area m/z 466.1 ([5]; 24 h): 7.03e7; stability under cell culture conditions ([5]; HepG2 culture medium, up to 24 hours): fairly stable under cell culture conditions; Activity on reduction of cellular TG accumulation (% of control) ([4]; A, compound dose ≦10 μM): 60.4 ± 7.34 % of control |
| COc1ccc2c(c1OCCO)CN1CCc3cc4c(cc3C1C2)OCO4 (stereo not shown) [Compound 82, 9-O-2-(1′-hydroxy-ethyl)-10-methoxy-5,8,13,13a-tetrahydro-6H-[1,3]dioxolo[4,5-g]isoquino[3,2-a]isoquinoline] | – | – | Activity on reduction of cellular TG accumulation (% of control) ([4]; B, compound dose ≦40 μM): 53.2 ± 21.3 % of control |
| CCOC(=O)COc1c(OC)ccc2c1CN1CCc3cc4c(cc3C1C2)OCO4 (stereo not shown) [Compound 83, 2-[10-methoxy-5,8,13,13a-tetrahydro-6H-[1,3]dioxolo[4,5-g]isoquino[3,2-a]isoquinoline-9-yl]-acetic esate] | – | – | Activity on reduction of cellular TG accumulation (% of control) ([4]; B, compound dose ≦40 μM): 63.0 ± 0.90 % of control |
